Laboratory results from ChEMBL document CHEMBL3792344, “Synthesis, molecular properties prediction and anticancer, antioxidant evaluation of new edaravone derivatives” (Bioorg Med Chem Lett, 2016).
pIC50: −log10 of the molar value. In brackets after ≈: the same amount, converted by molar mass.

What was measured:
A549 = assay: Cytotoxicity against human A549 cells assessed as inhibition of cell viability at 25 uM after 48 hrs by MTT assay relative to control; format: functional; details: A549, 48 h
[1] = Cytotoxicity against HEK293T cells assessed as inhibition of cell viability at 25 uM after 48 hrs by MTT assay relative to control; format: cell-based, HEK-293T; details: human, read-out: INH
[2] = Cytotoxicity against human PC3 cells assessed as inhibition of cell viability at 25 uM after 48 hrs by MTT assay relative to control; format: functional; details: PC-3, 48 h
[3] = Antioxidant activity assessed as DPPH free radical scavenging activity incubated for 30 mins in dark condition by spectrophotometric method; format: physicochemical
[4] = Cytotoxicity against human PC3 cells assessed as inhibition of cell viability after 48 hrs by MTT assay; format: functional, cell-based; details: PC-3, 48 h
[5] = Cytotoxicity against HEK293T cells assessed as inhibition of cell viability after 48 hrs by MTT assay; format: cell-based; details: Homo sapiens, HEK-293T

Compound	inhibition at 25 µM (A549) [%]	cytotoxicity at 48 h, 25 µM [1] [%]	inhibition at 25 µM [2] [%]	IC50 [3] [µg/mL]	pIC50 [4]	pIC50 [5]
COc1c(-c2ccc(C)cc2)c(C)nn1-c1ccccc1	44	19.7	18.5	18.6 (≈ 66.8 µM)		
COc1c(C(=O)NC(C)c2ccccc2)c(C)nn1-c1ccccc1 (stereo not drawn)	52.7	31.8	29.7	26.98 (≈ 80.4 µM)		
COc1c(C(=O)NCc2ccc(Cl)cc2)c(C)nn1-c1ccccc1	87	49.4	45.8	16.07 (≈ 45.2 µM)		
COc1cc(C)nn1-c1ccccc1	55.8	23	5.91	49.18 (≈ 261 µM)		
COc1c(-c2ccsc2)c(C)nn1-c1ccccc1	40	22.2	36.6	30.08 (≈ 111 µM)		
COc1c(-c2ccc3ccccc3c2)c(C)nn1-c1ccccc1	71	53.6	27.6	53.56 (≈ 170 µM)		
COc1c(Br)c(C)nn1-c1ccccc1	30.8	5.96	6.38	36.96 (≈ 138 µM)		
COc1cccc2c1C(=O)c1c(O)c3c(c(O)c1C2=O)C[C@@](O)(C(=O)CO)C[C@@H]3O[C@H]1C[C@H](N)[C@H](O)[C@H](C)O1 [DOXORUBICIN]					5.68	5.92
COc1ccc(CNC(=O)c2c(C)nn(-c3ccccc3)c2OC)cc1	60.9	44.3	34.6	28.42 (≈ 80.9 µM)		
O=C1O[C@H]([C@@H](O)CO)C(O)=C1O [ASCORBIC ACID]				8.09 (≈ 45.9 µM)		
COc1c(-c2ccc(C#N)cc2)c(C)nn1-c1ccccc1	54.7	57.8	30.2	41.98 (≈ 145 µM)		
COc1c(-c2ccc(O)cc2)c(C)nn1-c1ccccc1	55.9	5.58	4.9	37.03 (≈ 132 µM)		
COc1c(C(=O)NCc2ccccc2)c(C)nn1-c1ccccc1	46.7	22.2	8.71	23.63 (≈ 73.5 µM)		
COc1c(-c2ccc(F)cc2)c(C)nn1-c1ccccc1	63.9	40.9	46.3	35.97 (≈ 127 µM)		
COc1c(-c2cccc(C)c2)c(C)nn1-c1ccccc1	85.9	70.5	59.3	26.4 (≈ 94.8 µM)		
CC1=NN(c2ccccc2)C(=O)C1 [EDARAVONE]	19.2	2.4	1.43	54.4 (≈ 312 µM)		
COc1c(C(=O)O)c(C)nn1-c1ccccc1	22.1	12.1	3.19	16.27 (≈ 70.1 µM)		
COCc1ccccc1-c1c(C)nn(-c2ccccc2)c1OC	80.5	56.5	36	20.05 (≈ 65 µM)		
COc1ccc(-c2c(C)nn(-c3ccccc3)c2OC)c(OC)c1	74.7	48.1	33	38.99 (≈ 120 µM)		
COc1c(-c2csc3ccccc23)c(C)nn1-c1ccccc1	73.5	55	32.4	50.67 (≈ 158 µM)		
COc1c(-c2ccccc2)c(C)nn1-c1ccccc1	65.7	28.2	16.2	32.2 (≈ 122 µM)		
COc1ccc(-c2c(C)nn(-c3ccccc3)c2OC)cc1	70.7	46.3	24.3	24.98 (≈ 84.9 µM)		
